For series [1], the system named is NTera-2, human testicular cancer. Briefly: MTT assay, NTera-2 cells. The series is classed as cell-based. The protocol:
(§1) Cell Line and Cell Culture. Healthy normal fibroblast GM61869, human cancer NTera-2, human cervical cancer HeLa, human osteosarcoma cell line U2OS were obtained from the ATCC. Cells were incubated at 37° C. in 5% CO2 and grown in DMEM medium supplemented with 10% fetal bovine serum and 1% penicillin/streptomycin. Cells were passed every 3 to 4 days and restarted from the frozen stock upon reaching pass number 20.
(§2) MTT Assay. Cytotoxic behavior of compound 1, DCA and cis-DDP were evaluated using the MTT assay. Solutions of the platinum complexes were freshly prepared in sterile PBS before use and quantitated by atomic absorption spectroscopy. Cells were seeded on a 96 well plate (1000 cells per well for NTera-2, U2OS, HeLa; 1400 per well for normal fibriblast; 500 per well for 7B, 10B, 175F and 150×2) in 100 μL DMEM media and incubated for 24 hours. The cells were then treated with compound 1, DCA or cis-DDP, separately at varying concentrations and incubated for 72 hours at 37° C. The cells were then treated with 20 μL of 3-(4,5-dimethylthiazol-2-yl)-2,5-diphenyltetrazolium bromide (MTT) (5 mg/mL in PBS) and incubated for 5 h. The medium was removed, the cells were lysed by adding 100 μl, of DMSO, and the absorbance of the purple formazan was recorded at 550 nm using a BioTek Synergy HT multi-detection microplate plate reader. Each well was performed in triplicate in three independent experiments for each cell line.

Series [2] concerns HeLa, human cervical cancer. Briefly: MTT assay, HeLa cells. The series is classed as cell-based. To be noted: 72 hours. How it is done: as §1, §2
The next series has as its system U2OS, human osteosarcoma. Briefly: MTT assay, U2OS cells. The series is classed as cell-based. To be noted: 72 hours. How it is done: as §1, §2
The test system of series [3] is A549, human lung carcinoma. Briefly: MTT assay, A549 cells. The following applies: 72 hours. Type of series: cell-based. How it is done:
[The procedure below names another cell line; the source lists this cell line under the same test.] as §2

Series [4] relates to MCF-7, human breast adenocarcinoma. Briefly: MTT assay, MCF-7 cells. Type of series: cell-based. How it is done: [The procedure below names another cell line; the source lists this cell line under the same test.] as §2
In series [5] the test system is MRC-5, normal lung fibroblast. Briefly: MTT assay, MRC-5 normal cells. The series is classed as cell-based, human. The protocol:
as §2

In series [6] the test system is A2780, human ovarian carcinoma. Briefly: MTT assay, A2780 cells. The series is classed as cell-based. To be noted: A2780 cisplatin sensitive cells, 72 h. How it is done: (§3) A more negative membrane potential might promote translocation of the active, cationic form of cisplatin from the cytoplasm to mitochondria, thus diminishing platination of nuclear DNA. […] Thus, a pair of cisplatin sensitive A2780 and resistant A2780/CP70 ovarian cancer cells were studied (Table 1 and FIG. 10). […] (▴) with (A) cisplatin sensitive A2780 cells and (B) cisplatin resistant A2780/CP70 cells, after 72 h as determined by the MTT assay. The controls were cisplatin and c,c,t-[Pt(NH3)2Cl2(O2CCH3)2]. […] Results for the A2780/CP70 cells indicate that DCA plays a role, in this embodiment, in making cisplatin-resistant cells susceptible towards mitaplatin treatment.
as §2

Series [7] relates to A2780/CP70, cisplatin-resistant human ovarian carcinoma. Briefly: MTT assay, A2780/CP70 cells. Type of series: cell-based. The following applies: 72 h; for IC50: A2780/CP70 cisplatin resistant cells. The protocol:
as §3, §2

Series [8] has as its system normal fibroblasts and cancerous NTera-2 cells. Briefly: Co-culture of normal fibroblasts and cancerous NTera-2 cells. The series is classed as cell-based, human. From the text:
Cisplatin kills both NTera-2 and normal fibroblast cells

For a further series, the system named is U2OS. Briefly: Annexin-V flow cytometry, U2OS cells. Type of series: cell-based, human. To be noted: 10 and 20 μM, 72 h. The protocol:
(§4) In order to quantify mitaplatin-induced apoptosis in cancer cells, an Annexin-V was performed and analyzed using flow cytometry. With this analysis, the percentage of apoptotic cells found was determined at 72 h after exposure of mitaplatin and cisplatin.

The next series deals with HeLa. Briefly: Annexin-V flow cytometry, HeLa cells. Type of series: cell-based, human. To be noted: 10 and 20 μM, 72 h. The protocol:
as §4

A further series concerns A549. Briefly: Annexin-V flow cytometry, A549 cells. Type of series: cell-based, human. To be noted: 10 and 20 μM, 72 h. The protocol:
as §4

For a further series, the system named is normal MRC-5 cells. Briefly: Annexin-V flow cytometry, normal MRC-5 cells. The series is classed as cell-based, human. The following applies: 72 h, cisplatin at 10 μM. The protocol: as §4
Series [9] has as its system NTera, HeLa, U2OS, A549, and MCF-7 cancer cells as well as MRC-5 normal fibroblasts. Briefly: MTT assay, control experiments in all cells. Type of series: cell-based, human. The protocol: The ability of the compound 1 to promote cell death was determined using the MTT assay and the results were compared against those for cisplatin or -2 DCA using NTera, HeLa, U2OS, A549, and MCF-7 cancer cells as well as MRC-5 normal fibroblasts (FIG. 3). […] This enhanced potency of mitaplatin is consistent with the expected dual killing mechanism.
as §2

A value given as a limit tells only on which side of the number the result lay.

We go through 3 compounds from patent publication US9265747B2, “Platinum (IV) complexes for use in dual mode pharmaceutical therapy” (Massachusetts Institute of Technology, priority 2008, dated 2016).

As to cis-[Pt(NH3)2Cl2] [Cisplatin], the IC50 in series [1] (72 hours) came out at 0.043 µM; in series [1] (72 hours, listed as cis-DDP), 0.05 µM; in [2], 1.2 µM; in the series with U2OS, human osteosarcoma, 3.9 µM; in series [3], 12 µM; in [4] (72 hours), 13 µM. Also, the IC50 was 9.5 µM in series [5] (72 hours), 0.56 µM in [6] and 6 µM in series [7]. The “cell killing in co-culture” value in series [8] was “kills both the normal and cancer cells”. Moreover, the “apoptosis (Annexin-V)” value with U2OS is reported as “Apoptosis was detected”; in the series on HeLa, “Apoptosis was detected”; in the series with A549 it was “Apoptosis was detected”; with normal MRC-5 cells, “showed apoptosis”.

On to `CC(=O)[O][Pt]([NH2])([NH2])([Cl])([Cl])[O]C(C)=O` [c,c,t-[Pt(NH3)2Cl2(O2CCH3)2]], for which the “resistance of A2780/CP70 cells to the compound” value in series [7] (A2780/CP70 cells) is reported as “much more resistant”. In [9], the “activity relative to mitaplatin” value is recorded as “less active by several fold than mitaplatin”.

For `O=C(O)C(Cl)Cl` [DCA, Dichloroacetic acid], the IC50 in [1] (Homo sapiens, NTERA2, 72 hours) was greater than 0.4 µM; in series [2] (Homo sapiens), greater than 8 µM; in the series with U2OS, human osteosarcoma (Homo sapiens) it was greater than 100 µM; in series [3] (Homo sapiens) it was greater than 200 µM; in series [4] (Homo sapiens, MCF7, 72 hours), greater than 100 µM; in [5] (Homo sapiens, MRC5, 72 hours), greater than 100 µM. The IC50 in [6] (Homo sapiens) and in series [7] (Homo sapiens) was greater than 120 µM in each case.
